Assay results from ChEMBL document CHEMBL3867480 (Bioorg Med Chem, 2016).
Converted amounts (≈) assume the structure as drawn.

Key:
[1] = molecular target: Collagenase 3 (Homo sapiens, UniProt P45452)
Description: Inhibition of recombinant human AMPA-activated MMP13 using Cy3-PLGLK(Cy5Q)AR-NH2 as substrate measured after 40 mins by spectrofluorimetric method

[2] = molecular target: Stromelysin-2 (Homo sapiens, UniProt P09238); experiment: Inhibition of recombinant human […]-activated MMP10 using Cy3-PLGLK(Cy5Q)AR-NH2 as substrate measured after 40 mins by spectrofluorimetric method
[3] = molecular target: Matrix metalloproteinase-9 (Homo sapiens, UniProt P14780); experiment: Inhibition of recombinant human […]-activated MMP9 using Cy3-PLGLK(Cy5Q)AR-NH2 as substrate measured after 40 mins by spectrofluorimetric method
[4] = molecular target: Macrophage metalloelastase (Homo sapiens, UniProt P39900); experiment: Inhibition of recombinant human […]-activated MMP12 using Cy3-PLGLK(Cy5Q)AR-NH2 as substrate measured after 40 mins by spectrofluorimetric method
[5] = molecular target: Matrix metalloproteinase-14 (Homo sapiens, UniProt P50281); experiment: Inhibition of recombinant human GST-tagged MMP14 using Cy3-PLGLK(Cy5Q)AR-NH2 as substrate measured after 40 mins by spectrofluorimetric method
[6] = molecular target: Disintegrin and metalloproteinase domain-containing protein 17 (Homo sapiens, UniProt P78536); experiment: Inhibition of recombinant human TACE using Cy3-PLAQAV(Cy5Q-L-2,3-diaminopropionic acid)-RSSSR-NH2 as substrate measured after 40 mins by spectrofluorimetric method
[7] = molecular target: 72 kDa type IV collagenase (Homo sapiens, UniProt P08253); experiment: Inhibition of recombinant human […]-activated MMP2 using Cy3-PLGLK(Cy5Q)AR-NH2 as substrate measured after 40 mins by spectrofluorimetric method
[8] = molecular target: T1, Matrilysin (Homo sapiens, UniProt P09237); experiment: Inhibition of recombinant human […]-activated MMP7 using Cy3-PLGLK(Cy5Q)AR-NH2 as substrate measured after 40 mins by spectrofluorimetric method
T1 sequence (P09237 whole entry): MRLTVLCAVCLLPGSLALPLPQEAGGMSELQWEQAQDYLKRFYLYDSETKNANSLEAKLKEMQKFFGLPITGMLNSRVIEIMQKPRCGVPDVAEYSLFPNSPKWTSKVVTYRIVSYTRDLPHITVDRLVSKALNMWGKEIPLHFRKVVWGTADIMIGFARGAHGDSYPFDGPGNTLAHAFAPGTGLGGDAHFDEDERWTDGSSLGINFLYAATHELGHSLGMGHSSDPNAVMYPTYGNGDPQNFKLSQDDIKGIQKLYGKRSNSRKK

[9] = molecular target: T2, Interstitial collagenase (Homo sapiens, UniProt P03956); experiment: Inhibition of recombinant human […]-activated MMP1 using Cy3-PLGLK(Cy5Q)AR-NH2 as substrate measured after 40 mins by spectrofluorimetric method
T2 sequence (P03956 whole entry): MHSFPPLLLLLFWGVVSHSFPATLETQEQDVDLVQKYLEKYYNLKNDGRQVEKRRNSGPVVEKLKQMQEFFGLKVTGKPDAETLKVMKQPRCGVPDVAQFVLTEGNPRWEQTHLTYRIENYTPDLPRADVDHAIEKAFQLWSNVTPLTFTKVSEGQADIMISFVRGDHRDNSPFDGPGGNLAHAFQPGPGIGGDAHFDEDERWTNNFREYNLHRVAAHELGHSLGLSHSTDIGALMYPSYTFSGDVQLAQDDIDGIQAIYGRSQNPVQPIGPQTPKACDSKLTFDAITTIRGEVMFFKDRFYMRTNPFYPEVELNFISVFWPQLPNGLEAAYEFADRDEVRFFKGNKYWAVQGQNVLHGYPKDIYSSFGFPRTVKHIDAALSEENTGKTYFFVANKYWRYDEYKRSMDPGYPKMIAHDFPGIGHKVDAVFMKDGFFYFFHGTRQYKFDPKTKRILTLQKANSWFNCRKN

[10] = molecular target: Neutrophil collagenase (Homo sapiens, UniProt P22894); experiment: Inhibition of recombinant human […]-activated MMP8 using Cy3-PLGLK(Cy5Q)AR-NH2 as substrate measured after 40 mins by spectrofluorimetric method
[11] = molecular target: Stromelysin-1 (Homo sapiens, UniProt P08254); experiment: Inhibition of recombinant human […]-activated MMP3 using Cy3-PLGLK(Cy5Q)AR-NH2 as substrate measured after 40 mins by spectrofluorimetric method
[12] = Oral bioavailability in rat at 1 mg/kg; type: ADME, organism-based; conditions: in vivo
[13] = Clearance in rat liver microsomes; type: ADME; conditions: read-out: CLH
[14] = Solubility of the compound at pH 6.8; type: physicochemical; conditions: buffer
[15] = Clearance in human liver microsomes; type: ADME; conditions: read-out: CLH
[16] = Permeability of the compound at pH 7.4 by PAMPA assay; type: ADME; conditions: read-out: permeability
[17] = molecular target: CYP3A4 (Homo sapiens, UniProt P08684); experiment: Inhibition of CYP3A4 (unknown origin) at 10 uM; type: ADME
[18] = Clearance in rat at 0.1 mg/kg, iv or 1 mg/kg, po; type: ADME, organism-based; conditions: in vivo
[19] = Volume of distribution in rat at 0.1 mg/kg, iv or 1 mg/kg, po; type: ADME, organism-based; conditions: in vivo

Sequence of Stromelysin-2 (P09238 whole entry): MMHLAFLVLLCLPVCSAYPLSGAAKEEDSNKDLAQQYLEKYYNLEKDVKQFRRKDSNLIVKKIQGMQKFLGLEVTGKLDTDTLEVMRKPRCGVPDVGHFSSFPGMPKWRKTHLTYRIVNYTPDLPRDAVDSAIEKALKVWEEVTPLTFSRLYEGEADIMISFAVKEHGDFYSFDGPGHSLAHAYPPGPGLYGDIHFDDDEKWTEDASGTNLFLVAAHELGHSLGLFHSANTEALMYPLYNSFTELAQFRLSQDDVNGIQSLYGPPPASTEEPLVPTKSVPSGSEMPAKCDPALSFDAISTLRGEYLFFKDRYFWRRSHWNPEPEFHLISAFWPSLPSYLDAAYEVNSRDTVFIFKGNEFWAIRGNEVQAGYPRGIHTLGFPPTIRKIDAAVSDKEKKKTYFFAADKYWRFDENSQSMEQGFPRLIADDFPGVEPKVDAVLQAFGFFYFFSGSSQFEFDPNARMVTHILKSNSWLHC
Sequence of Neutrophil collagenase (P22894 whole entry): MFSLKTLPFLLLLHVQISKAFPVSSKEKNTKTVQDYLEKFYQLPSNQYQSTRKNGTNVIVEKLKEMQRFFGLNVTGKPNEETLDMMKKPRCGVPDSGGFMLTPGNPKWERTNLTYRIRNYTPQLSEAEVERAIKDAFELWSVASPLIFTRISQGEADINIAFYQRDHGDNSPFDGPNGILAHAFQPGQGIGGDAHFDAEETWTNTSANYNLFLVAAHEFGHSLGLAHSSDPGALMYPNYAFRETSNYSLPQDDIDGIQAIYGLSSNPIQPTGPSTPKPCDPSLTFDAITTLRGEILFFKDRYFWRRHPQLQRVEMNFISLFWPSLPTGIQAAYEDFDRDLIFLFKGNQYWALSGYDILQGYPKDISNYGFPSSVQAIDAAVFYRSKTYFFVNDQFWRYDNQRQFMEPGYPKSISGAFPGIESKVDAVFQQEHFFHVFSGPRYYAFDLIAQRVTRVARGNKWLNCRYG
Sequence of Stromelysin-1 (P08254 whole entry): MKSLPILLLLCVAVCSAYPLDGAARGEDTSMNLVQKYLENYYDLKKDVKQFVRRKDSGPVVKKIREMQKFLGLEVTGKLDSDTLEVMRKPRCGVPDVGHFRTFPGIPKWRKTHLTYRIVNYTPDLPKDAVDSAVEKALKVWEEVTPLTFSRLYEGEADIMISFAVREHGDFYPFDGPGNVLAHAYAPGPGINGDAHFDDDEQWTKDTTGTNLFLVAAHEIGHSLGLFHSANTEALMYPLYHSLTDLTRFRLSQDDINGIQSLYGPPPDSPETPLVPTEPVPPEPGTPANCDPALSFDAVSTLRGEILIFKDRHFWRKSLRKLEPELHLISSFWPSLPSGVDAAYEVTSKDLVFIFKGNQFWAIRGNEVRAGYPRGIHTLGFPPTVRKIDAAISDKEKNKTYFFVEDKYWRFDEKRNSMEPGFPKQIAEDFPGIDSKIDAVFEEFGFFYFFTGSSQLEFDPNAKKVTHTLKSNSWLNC
Sequence of Matrix metalloproteinase-9 (P14780 whole entry): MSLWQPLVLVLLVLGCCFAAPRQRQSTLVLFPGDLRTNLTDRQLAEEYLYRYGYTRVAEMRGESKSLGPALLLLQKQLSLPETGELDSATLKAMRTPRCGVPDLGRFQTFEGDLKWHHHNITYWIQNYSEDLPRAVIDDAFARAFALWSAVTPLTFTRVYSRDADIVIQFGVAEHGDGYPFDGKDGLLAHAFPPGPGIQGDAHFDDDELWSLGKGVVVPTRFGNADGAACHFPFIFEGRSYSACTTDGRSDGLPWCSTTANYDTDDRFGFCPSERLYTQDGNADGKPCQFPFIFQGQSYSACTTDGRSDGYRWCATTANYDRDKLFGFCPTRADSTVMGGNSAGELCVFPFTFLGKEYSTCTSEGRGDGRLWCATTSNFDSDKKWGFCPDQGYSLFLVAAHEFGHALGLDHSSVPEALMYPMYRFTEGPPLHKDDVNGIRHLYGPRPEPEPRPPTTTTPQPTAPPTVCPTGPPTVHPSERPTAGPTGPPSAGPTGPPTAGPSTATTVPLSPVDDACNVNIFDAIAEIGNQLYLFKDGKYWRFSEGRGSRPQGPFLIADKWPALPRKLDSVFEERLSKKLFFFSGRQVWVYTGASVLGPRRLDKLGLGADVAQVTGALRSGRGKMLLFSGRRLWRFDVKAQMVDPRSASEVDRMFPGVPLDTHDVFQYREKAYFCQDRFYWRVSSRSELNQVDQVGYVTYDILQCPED
Sequence of Macrophage metalloelastase (P39900 whole entry): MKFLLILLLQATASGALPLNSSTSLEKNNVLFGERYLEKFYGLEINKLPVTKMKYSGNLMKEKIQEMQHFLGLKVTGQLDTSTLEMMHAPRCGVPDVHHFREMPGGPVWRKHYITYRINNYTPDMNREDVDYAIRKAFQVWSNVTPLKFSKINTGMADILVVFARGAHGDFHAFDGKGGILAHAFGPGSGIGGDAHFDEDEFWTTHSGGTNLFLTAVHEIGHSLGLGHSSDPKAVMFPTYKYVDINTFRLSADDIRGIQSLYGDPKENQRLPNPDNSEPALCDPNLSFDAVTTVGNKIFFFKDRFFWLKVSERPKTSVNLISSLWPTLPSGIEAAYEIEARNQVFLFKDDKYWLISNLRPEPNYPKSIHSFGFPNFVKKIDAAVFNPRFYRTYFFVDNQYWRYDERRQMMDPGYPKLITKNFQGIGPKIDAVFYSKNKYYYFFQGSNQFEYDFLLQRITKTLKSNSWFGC
Sequence of CYP3A4 (P08684 whole entry): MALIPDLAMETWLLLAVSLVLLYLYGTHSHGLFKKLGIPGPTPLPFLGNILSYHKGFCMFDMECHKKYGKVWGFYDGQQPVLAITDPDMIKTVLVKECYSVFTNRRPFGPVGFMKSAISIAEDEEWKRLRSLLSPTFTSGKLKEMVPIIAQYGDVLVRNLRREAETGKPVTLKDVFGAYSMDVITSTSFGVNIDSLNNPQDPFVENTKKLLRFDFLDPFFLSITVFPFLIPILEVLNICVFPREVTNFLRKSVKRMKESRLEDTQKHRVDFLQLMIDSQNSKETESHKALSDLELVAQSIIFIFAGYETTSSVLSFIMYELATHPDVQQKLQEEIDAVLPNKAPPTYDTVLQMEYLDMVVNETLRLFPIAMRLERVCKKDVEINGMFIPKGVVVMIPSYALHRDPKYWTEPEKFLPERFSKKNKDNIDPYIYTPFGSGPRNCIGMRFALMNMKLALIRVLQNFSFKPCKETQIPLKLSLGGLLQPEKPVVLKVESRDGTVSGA
Sequence of Disintegrin and metalloproteinase domain-containing protein 17 (P78536 whole entry, the tested form may be a part): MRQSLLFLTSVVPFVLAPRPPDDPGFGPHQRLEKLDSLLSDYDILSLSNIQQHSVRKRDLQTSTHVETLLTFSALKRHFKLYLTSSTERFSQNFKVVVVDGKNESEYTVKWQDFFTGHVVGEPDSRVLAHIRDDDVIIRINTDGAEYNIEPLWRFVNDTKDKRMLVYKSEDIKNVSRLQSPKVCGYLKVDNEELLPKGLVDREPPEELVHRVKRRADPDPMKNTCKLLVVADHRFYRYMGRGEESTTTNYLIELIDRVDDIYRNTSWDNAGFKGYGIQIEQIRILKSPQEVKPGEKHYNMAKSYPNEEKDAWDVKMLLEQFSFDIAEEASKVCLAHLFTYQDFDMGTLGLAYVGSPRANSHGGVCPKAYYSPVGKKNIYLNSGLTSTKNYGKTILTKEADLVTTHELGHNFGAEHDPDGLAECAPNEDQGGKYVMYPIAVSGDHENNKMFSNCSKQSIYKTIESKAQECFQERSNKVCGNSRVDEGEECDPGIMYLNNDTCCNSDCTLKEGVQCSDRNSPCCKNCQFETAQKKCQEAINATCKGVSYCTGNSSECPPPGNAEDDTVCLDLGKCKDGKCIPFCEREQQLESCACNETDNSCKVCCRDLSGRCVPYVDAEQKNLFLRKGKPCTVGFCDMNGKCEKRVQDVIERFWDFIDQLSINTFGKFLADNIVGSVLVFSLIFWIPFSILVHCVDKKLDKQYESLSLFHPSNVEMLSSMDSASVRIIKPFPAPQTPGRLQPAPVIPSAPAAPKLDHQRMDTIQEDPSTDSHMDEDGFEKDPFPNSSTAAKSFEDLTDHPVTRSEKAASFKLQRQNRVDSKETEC
Sequence of 72 kDa type IV collagenase (P08253 whole entry): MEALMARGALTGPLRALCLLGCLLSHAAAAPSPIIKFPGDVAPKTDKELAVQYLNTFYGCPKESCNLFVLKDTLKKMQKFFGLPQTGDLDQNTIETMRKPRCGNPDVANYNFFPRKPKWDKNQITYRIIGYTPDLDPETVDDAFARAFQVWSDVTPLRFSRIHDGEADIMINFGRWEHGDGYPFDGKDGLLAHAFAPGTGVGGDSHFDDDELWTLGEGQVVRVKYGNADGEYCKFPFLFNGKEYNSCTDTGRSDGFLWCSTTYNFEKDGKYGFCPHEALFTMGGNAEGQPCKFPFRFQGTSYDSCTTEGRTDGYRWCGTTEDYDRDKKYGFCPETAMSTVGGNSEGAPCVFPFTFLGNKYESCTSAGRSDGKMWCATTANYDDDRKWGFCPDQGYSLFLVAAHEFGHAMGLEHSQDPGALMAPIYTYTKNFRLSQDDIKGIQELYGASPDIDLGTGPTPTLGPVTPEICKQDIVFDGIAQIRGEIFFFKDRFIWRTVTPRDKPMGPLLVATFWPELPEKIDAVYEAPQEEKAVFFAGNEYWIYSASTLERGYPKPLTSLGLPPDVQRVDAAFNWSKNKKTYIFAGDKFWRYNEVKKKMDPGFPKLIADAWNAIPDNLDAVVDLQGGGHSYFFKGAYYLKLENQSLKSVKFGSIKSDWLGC

SMILES	IC50 [1] [nM]	IC50 [2] [nM]	IC50 [3] [nM]	IC50 [4] [nM]	IC50 [5] [nM]	IC50 [6] [nM]	IC50 [7] [nM]	IC50 [8] [nM]	IC50 [9] [nM]	IC50 [10] [nM]	IC50 [11] [nM]	bioavailability [12] [%]	microsomal CLint [13] [µL/min/mg]	solubility [14] [µg/mL]	microsomal CLint [15] [µL/min/mg]	Papp [16] [×10⁻⁶ cm/s]	inhibition at 10 µM [17] [%]	clearance [18] [mL/min/kg]	Vd [19] [L/kg]
COc1cccc(CNC(=O)c2nc3ccccc3c(=O)[nH]2)c1	5.6 to 12																		
CC(C)C(CS(=O)(=O)c1ccc(-c2cccc(CNC(=O)c3nc4ccccc4c(=O)[nH]3)c2)cc1)N(O)C=O (stereo not given)	0.051	0.35	5.3	8.5	5.4	> 10000	3	30	18	1.3	2.5								
O=C(NCc1cccc(N2CCN(C(=O)Cc3nnn[nH]3)CC2)c1)c1nc2ccccc2c(=O)[nH]1	1.5	640					160			32									
O=C(NCc1cccc(OCCCOc2nc[nH]n2)c1)c1nc2ccccc2c(=O)[nH]1	0.59	220					32			22									
O=C(NCc1cccc(-c2ccc(CS(=O)(=O)Cc3n[nH]c(=O)[nH]3)cc2)c1)c1nc2scc(-c3cccc(Cl)c3)c2c(=O)[nH]1	0.38	34					86			1000									
CC(=O)N(O)C(CS(=O)(=O)c1ccc(-c2cccc(CNC(=O)c3nc4ccccc4c(=O)[nH]3)c2)cc1)C(C)C (stereo not given)	0.3	64					65			110		< 1	250	0.93 (≈ 1.65 µM)	250	45.2	99	< 0.0167	
O=C1NC(=O)C(CC(=O)N2CCN(c3cccc(CNC(=O)c4nc5ccccc5c(=O)[nH]4)c3)CC2)N1 (stereo not given)	0.19	< 10					< 10			< 10									
CC(C)C(CS(=O)(=O)c1ccc(-c2cccc(CNC(=O)c3nc4ccccc4c(=O)[nH]3)c2)cc1)N(O)C(N)=O (stereo not given)	0.26	< 10					< 10			19									
CCOCCC1(Oc2ccc(-c3cccc(CNC(=O)c4nc5ccccc5c(=O)[nH]4)c3)cc2)C(=O)NC(=O)NC1=O	0.23	930	1600	540	3700	> 10000	110	> 10000	> 10000	56	3300	32		9.1 (≈ 16 µM)	12	9.5	22	0.35	0.054
O=C(NCc1cccc(N2CCN(C(=O)Cc3cc(=O)[nH][nH]3)CC2)c1)c1nc2ccccc2c(=O)[nH]1	0.36	< 10					< 10			< 10									
CC(C)[C@H](NS(=O)(=O)c1ccc(-c2cccc(CNC(=O)c3nc4ccccc4c(=O)[nH]3)c2)cc1)C(=O)NO	0.0032	0.3	4.7	8.1	3.8	> 10000	1.9	7.3	11	0.82	1.5								
O=C(NCc1cccc(N2CCN(C(=O)Cc3c[nH]cn3)CC2)c1)c1nc2ccccc2c(=O)[nH]1	1.7	460					120			45									
O=C(NCc1cccc(N2CCN(C(=O)Cc3n[nH]c(=O)[nH]3)CC2)c1)c1nc2ccccc2c(=O)[nH]1	0.11	6.2	2900	260	8900	> 10000	10	> 10000	> 10000	3.9	23								
O=C(NCc1cccc(OCCCS(=O)(=O)N2CCCCC2C(=O)NO)c1)c1nc2ccccc2c(=O)[nH]1 (stereo not given)	0.052	2.6	72	1.8	550	510	0.57	2000	> 10000	1.2	2.6								
COc1cccc(CNC(=O)c2nc3scc(-c4cccc(Cl)c4)c3c(=O)[nH]2)c1	0.12	6300					2600			> 10000									
O=C(NCc1cccc(OCCCS(=O)(=O)N2CCCCC2C(=O)O)c1)c1nc2ccccc2c(=O)[nH]1 (stereo not given)	0.24	240	> 10000	300	> 10000	> 10000	14	> 10000	> 10000	14	370								
O=C(NCc1cccc(OCCCOc2nc[nH]n2)c1)c1nc2scc(-c3cccc(Cl)c3)c2c(=O)[nH]1		820					510			> 1000									
CC(C)[C@H](NS(=O)(=O)c1ccc(-c2cccc(CNC(=O)c3nc4ccccc4c(=O)[nH]3)c2)cc1)C(=O)O	0.17	2.4	36	16	140	> 10000	8.3	1000	3400	8.9	30								
O=C(NCc1cccc(-c2ccc(CS(=O)(=O)Cc3n[nH]c(=O)[nH]3)cc2)c1)c1nc2ccccc2c(=O)[nH]1	0.071	150	> 10000	9500	> 10000	> 10000	23	> 10000	> 10000	12	2400	1.3	13	0.48 (≈ 0.905 µM)	7	0.7	29	5.38	0.32
